Assay results published in patent US8252723B2, “Substituted 1-(3-pyridinyl)pyrazol-4-ylacetic acids, processes for their preparation and their use as herbicides and plant growth regulators” (Bayer CropScience AG, priority 2006, dated 2012).

Tested on: summer wheat of the cultivar 'Triso'
Test: Plant growth regulation test: culm stabilization of crop plants
Format: in vivo
Details: application rate of 30 to 300 g of active substance per hectare, treated at stage BBCH 31, culm length measured after ears had formed
Experimental: With stirring, the compound of the formula (I) in question was, in the form of a water-dispersible powder, together with a surfactant (customary adjuvant at an application rate of 1 l/ha), mixed with water such that a homogenous spray liquor was formed, and applied at an application rate of 300 l of water/ha (converted).
Seeds of summer wheat of the cultivar ‘Triso’ were sown at a depth of 1 cm in plant pots and cultivated outdoors until treatment.
The plants were treated on a laboratory track sprayer with spray liquors of the test substances at macrostage 3 after having reached about 10% of the maximum longitudinal growth typical for the cultivar (stage BBCH 31) and, after the treatment, returned outdoors.
After the ears had formed, the length of the culms were measured. The culm stabilization was evaluated as a percentage of the untreated control.

Structure (SMILES): C#CCOC(=O)Cc1cnn(-c2cccnc2)c1-c1ccccc1 [Example 3-64]
- longitudinal growth (culm length) of summer wheat: effectively shortened

Structure (SMILES): COC(=O)Cc1c(C)nn(-c2cccnc2)c1-c1ccc(F)cc1 [Example 2-120]
- longitudinal growth (culm length) of summer wheat: effectively shortened

Structure (SMILES): COC(=O)Cc1c(C)nn(-c2cccnc2)c1-c1ccc(Cl)nc1 [Example 2-134]
- longitudinal growth (culm length) of summer wheat: effectively shortened

Structure (SMILES): COC(=O)Cc1c(C)nn(-c2cnccc2C)c1-c1ccc(-c2ccccc2)cc1 [Example 2-41]
- longitudinal growth (culm length) of summer wheat: effectively shortened

Structure (SMILES): Cc1nn(-c2cccnc2)c(-c2ccc(Cl)cc2)c1CC(=O)OCC1(C)COC1 [Example 3-233]
- longitudinal growth (culm length) of summer wheat: effectively shortened

Structure (SMILES): COC(=O)Cc1c(C)nn(-c2cnccc2C)c1-c1ccc(C(F)(F)F)cc1 [Example 2-24]
- longitudinal growth (culm length) of summer wheat: effectively shortened

Structure (SMILES): O=C(O)Cc1cnn(-c2cccnc2)c1-c1ccccc1 [Example 1-72]
- longitudinal growth (culm length) of summer wheat: effectively shortened

Structure (SMILES): C=C(Cl)COC(=O)Cc1c(C)nn(-c2cccnc2)c1-c1sccc1C [Example 3-188]
- longitudinal growth (culm length) of summer wheat: effectively shortened

Structure (SMILES): Cc1nn(-c2cccnc2)c(-c2ccc(Cl)cc2)c1CC(=O)OCCN(C)C [Example 3-231]
- longitudinal growth (culm length) of summer wheat: effectively shortened

Structure (SMILES): COc1cccc(-c2c(CC(=O)O)c(C)nn2-c2cccnc2)n1 [Example 1-145]
- longitudinal growth (culm length) of summer wheat: effectively shortened

Structure (SMILES): C#CCOC(=O)Cc1c(C)nn(-c2cccnc2)c1-c1ccc(OC)nc1 [Example 3-63]
- longitudinal growth (culm length) of summer wheat: effectively shortened

Structure (SMILES): Cc1ccncc1-n1nc(C)c(CC(=O)O)c1-c1ccccn1 [Example 1-132]
- longitudinal growth (culm length) of summer wheat: effectively shortened

Structure (SMILES): COC(=O)Cc1c(C)nn(-c2cccnc2)c1-c1cccc(C)c1 [Example 2-119]
- longitudinal growth (culm length) of summer wheat: effectively shortened

Structure (SMILES): COC(=O)Cc1c(C)nn(-c2cnccc2C(F)(F)F)c1-c1ccccc1 [Example 2-8]
- longitudinal growth (culm length) of summer wheat: effectively shortened

Structure (SMILES): COC(=O)Cc1c(C)nn(-c2cnccc2[S+](C)[O-])c1-c1ccccc1 (stereo not drawn) [Example 2-71]
- longitudinal growth (culm length) of summer wheat: effectively shortened

Structure (SMILES): Cc1nn(-c2cccnc2)c(-c2ccc(F)cc2)c1CC(=O)OCC1CC1 [Example 3-91]
- longitudinal growth (culm length) of summer wheat: effectively shortened

Structure (SMILES): Cc1nn(-c2cccnc2)c(-c2ccccc2)c1CC(=O)OC(C)C1CC1 (stereo not drawn) [Example 3-144]
- longitudinal growth (culm length) of summer wheat: effectively shortened

Structure (SMILES): Cc1ccsc1-c1c(CC(=O)O)c(C)nn1-c1cccnc1 [Example 1-58]
- longitudinal growth (culm length) of summer wheat: effectively shortened

Structure (SMILES): Cc1nn(-c2cccnc2)c(-c2ccccc2)c1CC(=O)OCC1(C)CC1 [Example 3-105]
- longitudinal growth (culm length) of summer wheat: effectively shortened

Structure (SMILES): C#CCOC(=O)Cc1c(C)nn(-c2cnccc2C)c1-c1ccc(Cl)cc1 [Example 3-75]
- longitudinal growth (culm length) of summer wheat: effectively shortened

Structure (SMILES): Cc1ccncc1-n1nc(C)c(CC(=O)O)c1-c1cccs1 [Example 1-52]
- longitudinal growth (culm length) of summer wheat: effectively shortened

Structure (SMILES): Cc1ccc(-c2c(CC(=O)O)c(C)nn2-c2cnccc2C)cc1Cl [Example 1-49]
- longitudinal growth (culm length) of summer wheat: effectively shortened

Structure (SMILES): Cc1ccc(-c2c(CC(=O)O)c(C)nn2-c2cccnc2)cc1Cl [Example 1-46]
- longitudinal growth (culm length) of summer wheat: effectively shortened

Structure (SMILES): COC(=O)Cc1c(C)nn(-c2cccnc2)c1-c1ccccc1 [Example 2-2]
- longitudinal growth (culm length) of summer wheat: effectively shortened

Structure (SMILES): Cc1nn(-c2cnccc2Cl)c(-c2ccccc2)c1CC(=O)O [Example 1-30]
- longitudinal growth (culm length) of summer wheat: effectively shortened

Structure (SMILES): Cc1nn(-c2cccnc2)c(-c2ccsc2)c1CC(=O)O [Example 1-63]
- longitudinal growth (culm length) of summer wheat: effectively shortened

Structure (SMILES): Cc1ccncc1-n1nc(C)c(CC(=O)O)c1-c1sccc1C [Example 1-53]
- longitudinal growth (culm length) of summer wheat: effectively shortened

Structure (SMILES): COC(=O)Cc1c(C)nn(-c2cccnc2)c1-c1ccc(C)cc1 [Example 2-16]
- longitudinal growth (culm length) of summer wheat: effectively shortened

Structure (SMILES): C/C=C/C(C)OC(=O)Cc1c(C)nn(-c2cccnc2)c1-c1ccccc1 (stereo not drawn) [Example 3-160]
- longitudinal growth (culm length) of summer wheat: effectively shortened

Structure (SMILES): COC(=O)Cc1c(C(=O)OC)nn(-c2cccnc2)c1-c1ccccc1 [Example 2-127]
- longitudinal growth (culm length) of summer wheat: effectively shortened

Structure (SMILES): COC(=O)Cc1c(C)nn(-c2cnccc2C)c1-c1ccc(Cl)cc1Cl [Example 2-23]
- longitudinal growth (culm length) of summer wheat: effectively shortened

Structure (SMILES): COC(=O)Cc1c(C)nn(-c2cnccc2C)c1-c1ccc(C)c(Cl)c1 [Example 2-49]
- longitudinal growth (culm length) of summer wheat: effectively shortened

Structure (SMILES): Cc1nn(-c2cccnc2)c(-c2cccnc2)c1CC(=O)O [Example 1-125]
- longitudinal growth (culm length) of summer wheat: effectively shortened

Structure (SMILES): COC(=O)Cc1c(C)nn(-c2cccnc2)c1-c1ccccc1Cl [Example 2-31]
- longitudinal growth (culm length) of summer wheat: effectively shortened

Structure (SMILES): COC(=O)Cc1c(-c2ccccc2)nn(-c2cccnc2)c1-c1ccccc1 [Example 2-1]
- longitudinal growth (culm length) of summer wheat: effectively shortened

Structure (SMILES): COC(=O)Cc1c(C)nn(-c2cccnc2)c1-c1ccc(Cl)c(C(F)(F)F)c1 [Example 2-47]
- longitudinal growth (culm length) of summer wheat: effectively shortened

Structure (SMILES): COC(=O)Cc1c(C)nn(-c2cccnc2)c1-c1ccc(O)nc1 [Example 2-70]
- longitudinal growth (culm length) of summer wheat: effectively shortened

Structure (SMILES): COC(=O)Cc1c(C)nn(-c2cccnc2)c1-c1ccsc1 [Example 2-63]
- longitudinal growth (culm length) of summer wheat: effectively shortened

Structure (SMILES): Cc1ncccc1-n1nc(C)c(CC(=O)O)c1-c1ccccc1 [Example 1-135]
- longitudinal growth (culm length) of summer wheat: effectively shortened

Structure (SMILES): COC(=O)Cc1c(C)nn(-c2cccnc2)c1-c1ccco1 [Example 2-4]
- longitudinal growth (culm length) of summer wheat: effectively shortened

Structure (SMILES): COC(=O)Cc1c(C)nn(-c2cccnc2)c1-c1ccc(C(F)(F)F)cc1 [Example 2-28]
- longitudinal growth (culm length) of summer wheat: effectively shortened

Structure (SMILES): C=C(Cl)COC(=O)Cc1c(C)nn(-c2cccnc2)c1-c1ccc(C)nc1 [Example 3-195]
- longitudinal growth (culm length) of summer wheat: effectively shortened

Structure (SMILES): Cc1ccncc1-n1nc(C)c(CC(=O)O)c1-c1ccc(F)cc1 [Example 1-37]
- longitudinal growth (culm length) of summer wheat: effectively shortened

Structure (SMILES): COC(=O)Cc1c(C)nn(-c2ccc(C)nc2C)c1-c1ccccc1 [Example 2-11]
- longitudinal growth (culm length) of summer wheat: effectively shortened

Structure (SMILES): COc1ccncc1-n1nc(C)c(CC(=O)O)c1-c1ccccc1 [Example 1-34]
- longitudinal growth (culm length) of summer wheat: effectively shortened

Structure (SMILES): COC(=O)Cc1c(C)nn(-c2cncc(C)c2)c1-c1ccc(Cl)cc1 [Example 2-51]
- longitudinal growth (culm length) of summer wheat: effectively shortened

Structure (SMILES): COC(=O)Cc1c(C)nn(-c2cnccc2C)c1-c1ccc(Cl)s1 [Example 2-55]
- longitudinal growth (culm length) of summer wheat: effectively shortened

Structure (SMILES): Cc1ccncc1-n1nc(C)c(CC(=O)O)c1-c1cccc(C(F)(F)F)c1 [Example 1-19]
- longitudinal growth (culm length) of summer wheat: effectively shortened

Structure (SMILES): COC(=O)Cc1c(C)nn(-c2cccnc2C)c1-c1ccccc1 [Example 2-135]
- longitudinal growth (culm length) of summer wheat: effectively shortened

Structure (SMILES): COC(=O)C(C)c1c(C)nn(-c2cnccc2C)c1-c1ccccc1 (stereo not drawn) [Example 2-6]
- longitudinal growth (culm length) of summer wheat: effectively shortened

Structure (SMILES): Cc1csc(-c2c(CC(=O)O)c(C)nn2-c2cnccc2C)c1 [Example 1-54]
- longitudinal growth (culm length) of summer wheat: effectively shortened

Structure (SMILES): Cc1ccc(-c2c(CC(=O)O)c(C)nn2-c2cccnc2)cc1 [Example 1-16]
- longitudinal growth (culm length) of summer wheat: effectively shortened

Structure (SMILES): Cc1ccc(-c2c(CC(=O)O)c(C)nn2-c2cccnc2)nc1 [Example 1-113]
- longitudinal growth (culm length) of summer wheat: effectively shortened

Structure (SMILES): COC(=O)Cc1c(C)nn(-c2cccnc2)c1-c1cccs1 [Example 2-57]
- longitudinal growth (culm length) of summer wheat: effectively shortened

Structure (SMILES): COC(=O)Cc1c(C)nn(-c2ccc(C(F)(F)F)nc2)c1-c1ccccc1 [Example 2-9]
- longitudinal growth (culm length) of summer wheat: effectively shortened

Structure (SMILES): Cc1cc(C)cc(-c2c(CC(=O)O)c(C)nn2-c2cccnc2)c1 [Example 1-43]
- longitudinal growth (culm length) of summer wheat: effectively shortened

Structure (SMILES): Cc1ccc(-c2c(CC(=O)O)c(C)nn2-c2cccnc2)s1 [Example 1-61]
- longitudinal growth (culm length) of summer wheat: effectively shortened

Structure (SMILES): CCCc1nn(-c2cnccc2C)c(-c2ccc(Cl)cc2)c1CC(=O)OC [Example 2-124]
- longitudinal growth (culm length) of summer wheat: effectively shortened

Structure (SMILES): Cc1nn(-c2cccnc2)c(-c2ccccc2)c1CC(=O)OCC1CC1 [Example 3-77]
- longitudinal growth (culm length) of summer wheat: effectively shortened

Structure (SMILES): COC(=O)Cc1cnn(-c2cnccc2C)c1-c1ccccc1 [Example 2-73]
- longitudinal growth (culm length) of summer wheat: effectively shortened

Structure (SMILES): COC(=O)Cc1c(C)nn(-c2cccnc2)c1-c1cccc(OC)n1 [Example 2-145]
- longitudinal growth (culm length) of summer wheat: effectively shortened

Structure (SMILES): Cc1nn(-c2cnccc2[S+](C)[O-])c(-c2ccccc2)c1CC(=O)O (stereo not drawn) [Example 1-71]
- longitudinal growth (culm length) of summer wheat: effectively shortened

Structure (SMILES): C=C(C)COC(=O)Cc1c(C)nn(-c2cccnc2)c1-c1ccccc1 [Example 3-156]
- longitudinal growth (culm length) of summer wheat: effectively shortened

Structure (SMILES): Cc1ccc(-c2c(CC(=O)O)c(C)nn2-c2cnccc2C)cc1 [Example 1-36]
- longitudinal growth (culm length) of summer wheat: effectively shortened

Structure (SMILES): COC(=O)Cc1c(C)nn(-c2cnccc2C)c1-c1cc(C)cs1 [Example 2-54]
- longitudinal growth (culm length) of summer wheat: effectively shortened

Structure (SMILES): COC(=O)Cc1c(C)nn(-c2cccnc2)c1-c1ccc(Cl)cc1 [Example 2-26]
- longitudinal growth (culm length) of summer wheat: effectively shortened
